Data published in patent publication US8633250B2, “Cell repair and regeneration by suramin and related polysulfonated napthylureas” (MUSC Foundation for Research Development, priority 2006, dated 2014).

Experiments:
Type in all cases: cell-based, rabbit
[1] = tested on: renal proximal tubule cells (RPTC); test: MTT assay of RPTC proliferation; conditions: 50 μM suramin 48 hr; 10 μM AG1478, 20 μM LY294002, 10 μM U0126 or 10 μM PP1
Experimental: Isolation and culture of renal proximal tubules: Isolation and culture of renal proximal tubules were performed as described previously (Rodeheaver et al., 1990; Nowak and […], 1995; Nowak and […], 1996). Female New Zealand White rabbits (1.5-2.5 kg) were purchased from Myrtle's Rabbitry (Thompson Station, Tenn.). RPTC were isolated using the iron oxide perfusion method and grown in 6-well tissue culture dishes under improved conditions. The culture medium was an 1:1 mixture of DMEM/Ham's F-12 (without glucose, phenol red, or sodium pyruvate) supplemented with 15 mM HEPES buffer, 2.5 mM L-glutamine, 1 μM pyridoxine HCl, 15 mM sodium bicarbonate, and 6 mM lactate. Hydrocortisone (50 μM), selenium (5 ng/ml), human transferrin (5 μg/ml) bovine insulin (10 nM) and L-ascorbic acid-2-phosphate (50 μM) were added daily to fresh culture medium. Isolated tubules were plated at 1 mg protein/well in a 6-well plate. On day 2, RPTC were incubated in the presence and absence of various pharmacological inhibitors for different time periods as indicated in the figure legends. […] MTT assay: The 3-(4,5-dimethylthiazol-2-yl)-2,5-diphenyl-tetrazolium bromide (MTT) assay was used to assess cell proliferation (Kooistra et al., 1997; […] et al., 2002). Following a 48 hr exposure to various inhibitors or diluents, MTT was added (final concentration of 0.5 mg/ml) to individual cultures for an additional 30 min. Tetrazolium was released by dimethyl sulfoxide and optical density was determined with a spectrophotometer (570 nm). Data were normalized to diluent-treated cultures.

[2] = tested on: renal proximal tubule cells (RPTC); test: RPTC scattering, fibroblast-like morphology and lamellipodia (bright field, phalloidin staining); conditions: for effect of inhibitor on suramin-induced fibroblast-like phenotype and RPTC scattering: 50 μM suramin 24 hr, 10 μM AG1478, 20 μM LY294002, 10 μM U0126 or 10 μM PP1
Experimental: (§1) Isolation and culture of renal proximal tubules: Isolation and culture of renal proximal tubules were performed as described previously (Rodeheaver et al., 1990; Nowak and Schnellmann, 1995; Nowak and Schnellmann, 1996). Female New Zealand White rabbits (1.5-2.5 kg) were purchased from Myrtle's Rabbitry (Thompson Station, Tenn.). RPTC were isolated using the iron oxide perfusion method and grown in 6-well tissue culture dishes under improved conditions. The culture medium was an 1:1 mixture of DMEM/Ham's F-12 (without glucose, phenol red, or sodium pyruvate) supplemented with 15 mM HEPES buffer, 2.5 mM L-glutamine, 1 μM pyridoxine HCl, 15 mM sodium bicarbonate, and 6 mM lactate. Hydrocortisone (50 μM), selenium (5 ng/ml), human transferrin (5 μg/ml) bovine insulin (10 nM) and L-ascorbic acid-2-phosphate (50 μM) were added daily to fresh culture medium.
(§2) Isolated tubules were plated at 1 mg protein/well in a 6-well plate. On day 2, RPTC were incubated in the presence and absence of various pharmacological inhibitors for different time periods as indicated in the figure legends. For some experiments, suramin was added to RPTC on day 3 and then incubated for 24 hr in the presence or absence of various inhibitors before samples were taken.
Immunocytochemistry: After various treatments, RPTC were fixed with 10% buffered formalin, washed, permeabilized, and blocked with BSA. Fluorescein conjugated phalloidin was added and RPTC visualized by fluorescent microscopy.

[3] = tested on: EGF receptor; test: Immunoblot of EGF receptor phosphorylation (Tyr1068) in RPTC; conditions: pretreated with 10 μM AG1478 for 1 hr, then EGF 10 min
Experimental: (§3) Preparation of cell lysates and immunoblot analysis: After different treatments, RPTC were washed twice with PBS and harvested in lysis buffer (0.25 M Tris-HCl, pH 6.8, 4% SDS, 10% glycerol, 1 mg/ml bromophenol blue, and 0.5% 2-mercaptoethanol). Cells were disrupted by sonication for 15 seconds and lysates stored at −20 °C. Equal amounts of cellular protein lysate were separated on 10% polyacrylamide gels and transferred to nitrocellulose membranes. After treatment with 5% skim milk at 4 °C overnight, membranes were incubated with various antibodies for 1 hr, and then incubated with an appropriate horseradish-peroxidase conjugated secondary antibody (Amersham, Piscataway, N.J.). Bound antibodies were visualized following chemiluminescence detection on autoradiographic film.
To determine whether suramin caused EGF receptor activation, we performed immunoblot analysis using an antibody against phosphorylated tyrosine 1068 of the EGF receptor. Total EGF receptor content was measured using immunoblot analysis and an antibody that recognizes the EGF receptor independent of its phosphorylation state to control for gel loading. […] Thus, suramin induced RPTC proliferation and scattering is not through the EGF receptor.

[4] = tested on: Akt; test: Immunoblot of Akt phosphorylation in RPTC; conditions: pretreated 1 hr with 20 μM LY294002, or 10 μM PP1, or AG1478; 50 μM suramin 30 min
Experimental: as §3
We evaluated whether the PI3K/Akt and/or ERK1/2 pathways are activated in RPTC in response to suramin. The activation of the PI3K and ERK1/2 pathways was measured using immunoblot analysis and antibodies that recognize phosphorylated Akt at serine 473 (a target of PI3K) and ERK1/2, respectively. Total Akt and ERK1/2 content was measured using immunoblot analysis and antibodies that recognize the Akt and ERK1/2 independent of their phosphorylation state to control for gel loading. Suramin-induced Akt phosphorylation within 10 min, reached a maximum at 30 min and was sustained through 120 min of treatment (FIG. 6A). ERK1/2 phosphorylation also was induced within 10 min and maximal at 30 min, but decreased to the control levels at 120 min.

[5] = tested on: renal proximal tubule cells (RPTC); test: Cell cycle analysis by flow cytometry: number of RPTC in S-phase; conditions: 50 μM suramin 24 hr; 20 μM LY294002, 10 μM U0126 or 10 μM PP1
Experimental: as §1, §2
Cell cycle analysis: Cell cycle phase was determined using flow cytometry as previously described (Zhuang et al., 2004). Cells were harvested, stained with propidium iodide and the number of cells in S-phase of cell cycle determined.

[6] = tested on: ERK1/2; test: Immunoblot of ERK1/2 phosphorylation in RPTC; conditions: pretreated with 10 μM U0126 for 1 hr; presence and absence of 50 μM suramin (30 min)
Experimental: as §3
We evaluated whether the PI3K/Akt and/or ERK1/2 pathways are activated in RPTC in response to suramin. The activation of the PI3K and ERK1/2 pathways was measured using immunoblot analysis and antibodies that recognize phosphorylated Akt at serine 473 (a target of PI3K) and ERK1/2, respectively. Total Akt and ERK1/2 content was measured using immunoblot analysis and antibodies that recognize the Akt and ERK1/2 independent of their phosphorylation state to control for gel loading.

[7] = tested on: Src; test: Immunoblot of Src phosphorylation (Tyr416, Tyr527) in RPTC; conditions: PP1, suramin-treated RPTC
Experimental: as §3
To determine whether suramin activates Src and whether Src mediates Akt activation, we examined the effect of suramin on Src phosphorylation and the effect of PP1 on suramin-induced Akt phosphorylation. Src activation requires dephosphorylation of tyrosine 527 (Zheng et al., 2000) and phosphorylation of tyrosine 416 in the catalytic domain (Leu and Maa, 2003). Src phosphorylation at tyrosine 416 was detected in control samples. Following suramin-treatment, Src phosphorylation increased within 10 min and returned to the basal level at 60 min (FIG. 8A). […] Thus, suramin-induced RPTC proliferation and scattering is dependent on Src activity and Src is required for activation of the PI3K/Akt signaling pathway.

## COc1cc2ncnc(Nc3cccc(Cl)c3)c2cc1OC [AG1478, 4-(3-chloroanilino)-6,7-dimethoxyquinazoline]
[1]
  effect of inhibitor on suramin-induced RPTC proliferation (MTT assay): did not affect suramin-induced RPTC proliferation
[2]; 10 ng/ml EGF 24 hr, 10 μM AG1478
  effect of inhibitor on EGF-induced fibroblast-like phenotype and scattering: blocked EGF-induced formation of the fibroblast-like phenotype and scattering
[2]
  effect of inhibitor on suramin-induced fibroblast-like phenotype and RPTC scattering: did not affect suramin-induced formation of the fibroblast-like phenotype and scattering
[3]
  effect of inhibitor on EGF-induced EGF receptor phosphorylation: inhibited EGF-induced EGF receptor phosphorylation
[4]
  effect of inhibitor on Akt phosphorylation: did not affect suramin-induced phosphorylation of Akt

## N#CC(=C(N)Sc1ccccc1N)C(C#N)=C(N)Sc1ccccc1N [U0126, 1,4-Diamino-2,3-dicyano-1,4-bis(2-aminophenylthio)butadiene]
[5]
  effect of inhibitor on suramin-induced RPTC proliferation (number of RPTC in S-phase): had no effect on proliferation
[1]
  effect of inhibitor on suramin-induced RPTC proliferation (MTT assay): had no effect on proliferation
[2]
  effect of inhibitor on suramin-induced fibroblast-like phenotype and RPTC scattering: had no effect
[6]
  effect of inhibitor on ERK1/2 phosphorylation: blocked ERK1/2 phosphorylation

## O=c1cc(N2CCOCC2)oc2c(-c3ccccc3)cccc12 [LY294002, 2-(4-Morpholinyl)-8-phenyl-4H-1-benzopyran-4-one]
[5]
  effect of inhibitor on suramin-induced RPTC proliferation (number of RPTC in S-phase): decreased suramin-induced proliferation
[1]
  effect of inhibitor on suramin-induced RPTC proliferation (MTT assay): decreased suramin-induced proliferation
[2]
  effect of inhibitor on suramin-induced fibroblast-like phenotype and RPTC scattering: partially inhibited
[4]
  effect of inhibitor on Akt phosphorylation: blocked Akt phosphorylation

## Cc1ccc(-c2nn(C(C)(C)C)c3ncnc(N)c23)cc1 [PP1]
[5]
  effect of inhibitor on suramin-induced RPTC proliferation (number of RPTC in S-phase): inhibited RPTC proliferation in control and suramin-treated cells
[1]
  effect of inhibitor on suramin-induced RPTC proliferation (MTT assay): inhibited RPTC proliferation in control and suramin-treated cells
[2]
  effect of inhibitor on suramin-induced fibroblast-like phenotype and RPTC scattering: blocked
[4]
  effect of inhibitor on Akt phosphorylation: blocked suramin-induced phosphorylation of Akt
[7]
  effect of inhibitor on suramin-induced Src phosphorylation: inhibition of suramin-induced Src and Akt phosphorylation
